Test results: ChEMBL document CHEMBL1121855, “Potential salicylamide antiplaque agents: in vitro antibacterial activity against Actinomyces viscosus” (J Med Chem, 1981)
In brackets after ≈: the same amount, converted by molar mass. Values belong to the molecule of their own block, whether it stands above or below them.

Key:
Actinomyces viscosus [1] = assay: In vitro antibacterial activity against Actinomyces viscosus M-100-2000; type: functional
[2] = Dissociation constant is the negative logarithm of the equilibrium coefficient of the neutral and charged forms of the compound; type: physicochemical
[3] = Observed inhibitory activity against various Actinomycetes strains; settings: actinomycetaceae
[4] = Distribution coefficient between octanol and aqueous phase at pH7.2; type: physicochemical; settings: pH 7.2
[5] = Partition coefficient is determined in octanol/buffer solution; type: physicochemical
Actinomyces naeslundii [6] = assay: In vitro antibacterial activity against Actinomycetes naeslundii 12104; type: functional
Actinomyces israelii [7] = assay: In vitro antibacterial activity against Actinomycetes israelii 28360; type: functional
Actinomyces naeslundii [8] = assay: In vitro antibacterial activity against Actinomycetes naeslundii 8115; type: functional
Actinomyces israelii [9] = assay: In vitro antibacterial activity against Actinomycetes israelii 12836; type: functional
Actinomyces israelii [10] = assay: In vitro antibacterial activity against Actinomycetes israelii 10048; type: functional
Actinomyces viscosus [11] = assay: In vitro antibacterial activity against Actinomycetes viscosus T14V; type: functional

Compound: CCCCCCCCCCCC(=O)c1ccc(O)c(C(=O)Nc2nc3ccccc3s2)c1
MIC (Actinomyces viscosus [1]): > 20 µg/mL

Compound: Cc1cc(C)nc(NC(=O)c2cc(Br)cc(Br)c2O)c1
MIC (Actinomyces viscosus [1]): 25 µg/mL (≈ 62.5 µM)

Compound: Cc1ccc(O)c(C(=O)NCCCCCCNC(=O)c2cc(C)ccc2O)c1
MIC (Actinomyces viscosus [1]): > 20 µg/mL

Compound: O=C(Nc1cccc(C(F)(F)F)c1)c1cc(Br)cc(Br)c1O [FLUOROSALAN]
MIC (Actinomyces naeslundii [6]): 1 µg/mL (≈ 2.28 µM) | MIC (Actinomyces viscosus [1]): 1 µg/mL (≈ 2.28 µM) | MIC (Actinomyces israelii [7]): 0.1 µg/mL (≈ 0.228 µM) | MIC (Actinomyces naeslundii [8]): 0.5 µg/mL (≈ 1.14 µM) | MIC (Actinomyces israelii [9]): 0.5 µg/mL (≈ 1.14 µM) | MIC (Actinomyces israelii [10]): 0.5 µg/mL (≈ 1.14 µM) | MIC (Actinomyces viscosus [11]): 0.5 µg/mL (≈ 1.14 µM)

Compound: O=C(Nc1nc2cc(Cl)ccc2o1)c1cc(Br)cc(Br)c1O
MIC (Actinomyces viscosus [1]): > 35 µg/mL

Compound: CCCCCCCCCCCCCC(=O)c1ccc(O)c(C(=O)Nc2ccc(Br)cc2)c1
MIC (Actinomyces viscosus [1]): > 5 µg/mL

Compound: CCCCCCc1ccc(O)c(C(=O)NCc2ccc(Cl)c(Cl)c2)c1
MIC (Actinomyces naeslundii [6]): 0.5 µg/mL (≈ 1.31 µM) | MIC (Actinomyces viscosus [1]): 0.5 µg/mL (≈ 1.31 µM) | MIC (Actinomyces israelii [7]): 1 µg/mL (≈ 2.63 µM) | MIC (Actinomyces naeslundii [8]): 0.5 µg/mL (≈ 1.31 µM) | MIC (Actinomyces israelii [9]): 1 µg/mL (≈ 2.63 µM) | MIC (Actinomyces israelii [10]): 0.5 µg/mL (≈ 1.31 µM) | MIC (Actinomyces viscosus [11]): 0.5 µg/mL (≈ 1.31 µM)

Compound: O=C(NCCCCCCNC(=O)c1ccccc1O)c1ccccc1O
MIC (Actinomyces viscosus [1]): > 20 µg/mL

Compound: CCCCCCc1ccc(O)c(C(=O)Nc2cccc(C(F)(F)F)c2)c1
MIC (Actinomyces naeslundii [6]): 0.05 µg/mL (≈ 0.137 µM) | MIC (Actinomyces viscosus [1]): 0.5 µg/mL (≈ 1.37 µM) | MIC (Actinomyces israelii [7]): > 5 µg/mL | MIC (Actinomyces naeslundii [8]): 0.1 µg/mL (≈ 0.274 µM) | MIC (Actinomyces israelii [9]): 0.5 µg/mL (≈ 1.37 µM) | MIC (Actinomyces israelii [10]): 0.5 µg/mL (≈ 1.37 µM) | MIC (Actinomyces viscosus [11]): 0.05 µg/mL (≈ 0.137 µM)

Compound: CCCCCCCCCCCC(=O)c1ccc(O)c(C(=O)Nc2ccc(Br)cc2)c1
MIC (Actinomyces naeslundii [6]): 0.5 µg/mL (≈ 1.05 µM) | MIC (Actinomyces viscosus [1]): 0.02 µg/mL (≈ 0.0422 µM) | MIC (Actinomyces israelii [7]): 0.5 µg/mL (≈ 1.05 µM) | pKa [2]: 6.1 | MIC (Actinomyces naeslundii [8]): 1 µg/mL (≈ 2.11 µM) | Log 1/MIC [3]: 7.37 | MIC (Actinomyces israelii [9]): > 5 µg/mL | logD [4]: 7.88 | MIC (Actinomyces israelii [10]): > 5 µg/mL | logP ([5]; octanol/water): 9.02 | MIC (Actinomyces viscosus [11]): 0.5 µg/mL (≈ 1.05 µM)

Compound: CCCCCCCCCCCC(=O)c1ccc(O)c(C(=O)Nc2cccc(C(F)(F)F)c2)c1
MIC (Actinomyces naeslundii [6]): 0.1 µg/mL (≈ 0.216 µM) | MIC (Actinomyces viscosus [1]): 0.5 µg/mL (≈ 1.08 µM) | MIC (Actinomyces israelii [7]): 0.1 µg/mL (≈ 0.216 µM) | MIC (Actinomyces naeslundii [8]): 0.05 µg/mL (≈ 0.108 µM) | MIC (Actinomyces israelii [9]): 0.5 µg/mL (≈ 1.08 µM) | MIC (Actinomyces israelii [10]): 0.1 µg/mL (≈ 0.216 µM) | MIC (Actinomyces viscosus [11]): 0.1 µg/mL (≈ 0.216 µM)

Compound: CCCCCCc1ccc(O)c(C(=O)NCc2ccc([N+](=O)[O-])cc2)c1
MIC (Actinomyces naeslundii [6]): 0.05 µg/mL (≈ 0.14 µM) | MIC (Actinomyces viscosus [1]): 0.05 µg/mL (≈ 0.14 µM) | MIC (Actinomyces israelii [7]): 0.1 µg/mL (≈ 0.281 µM) | MIC (Actinomyces naeslundii [8]): 0.05 µg/mL (≈ 0.14 µM) | MIC (Actinomyces israelii [9]): 0.1 µg/mL (≈ 0.281 µM) | MIC (Actinomyces israelii [10]): 0.5 µg/mL (≈ 1.4 µM) | MIC (Actinomyces viscosus [11]): 0.05 µg/mL (≈ 0.14 µM)

Compound: CCCCCCc1ccc(O)c(C(=O)Nc2nc3ccccc3s2)c1
MIC (Actinomyces viscosus [1]): > 20 µg/mL

Compound: CCCCCCCCCC(=O)c1ccc(O)c(C(=O)Nc2nc3ccccc3s2)c1
MIC (Actinomyces naeslundii [6]): > 10 µg/mL | MIC (Actinomyces viscosus [1]): 0.5 µg/mL (≈ 1.18 µM) | MIC (Actinomyces israelii [7]): > 10 µg/mL | MIC (Actinomyces naeslundii [8]): > 10 µg/mL | MIC (Actinomyces israelii [9]): > 10 µg/mL | MIC (Actinomyces israelii [10]): 5 µg/mL (≈ 11.8 µM) | MIC (Actinomyces viscosus [11]): 10 µg/mL (≈ 23.6 µM)

Compound: CCCCCCc1ccc(O)c(C(=O)Nc2ccc(Br)cc2)c1
MIC (Actinomyces naeslundii [6]): 1 µg/mL (≈ 2.66 µM) | MIC (Actinomyces viscosus [1]): 0.01 µg/mL (≈ 0.0266 µM) | MIC (Actinomyces israelii [7]): 0.1 µg/mL (≈ 0.266 µM) | pKa [2]: 7.35 | MIC (Actinomyces naeslundii [8]): 0.1 µg/mL (≈ 0.266 µM) | Log 1/MIC [3]: 7.58 | MIC (Actinomyces israelii [9]): 0.5 µg/mL (≈ 1.33 µM) | logD [4]: 6.88 | MIC (Actinomyces israelii [10]): 0.1 µg/mL (≈ 0.266 µM) | logP ([5]; octanol/buffer, read-out: logP): 7.11 | MIC (Actinomyces viscosus [11]): 0.1 µg/mL (≈ 0.266 µM)

Compound: CCCCCCc1ccc(O)c(C(=O)NCc2ccc(C)c([N+](=O)[O-])c2)c1
MIC (Actinomyces viscosus [1]): > 20 µg/mL

Compound: Cc1cc(C)nc(NC(=O)c2cc(Br)cc(Br)c2O)n1
MIC (Actinomyces viscosus [1]): 200 µg/mL (≈ 499 µM)

Results, then the molecule that gave them:

MIC (Actinomyces viscosus [1]): 0.06 µg/mL (≈ 0.134 µM) | pKa [2]: 6.1 | Log 1/MIC [3]: 6.87 | logD [4]: 6.88 | logP ([5]; octanol/buffer, read-out: logP): 8.02
Compound: CCCCCCCCCC(=O)c1ccc(O)c(C(=O)Nc2ccc(Br)cc2)c1

MIC (Actinomyces viscosus [1]): 10 µg/mL (≈ 28.9 µM)
Compound: CCCCCCc1ccc(O)c(C(=O)NCc2ccc(Cl)cc2)c1

MIC (Actinomyces viscosus [1]): 0.4 µg/mL (≈ 0.949 µM) | pKa [2]: 5.6 | Log 1/MIC [3]: 6.02 | logD [4]: 5.96 | logP ([5]; octanol/buffer, read-out: logP): 7.56
Compound: CCCCCCc1cc(C(=O)Nc2ccc(Br)cc2)c(O)c([N+](=O)[O-])c1

MIC (Actinomyces viscosus [1]): 0.05 µg/mL (≈ 0.113 µM)
Compound: CCCCCCCCCCCC(=O)c1ccc(O)c(C(=O)Nc2ccc([N+](=O)[O-])cc2)c1

MIC (Actinomyces viscosus [1]): 4 µg/mL (≈ 8.98 µM)
Compound: O=C(Nc1nc2cc(Cl)ccc2[nH]1)c1cc(Br)cc(Br)c1O

MIC (Actinomyces viscosus [1]): 1.7 µg/mL (≈ 3.97 µM)
Compound: O=C(Nc1nc2ccccc2s1)c1cc(Br)cc(Br)c1O

MIC (Actinomyces viscosus [1]): 0.2 µg/mL (≈ 0.495 µM)
Compound: CCCCCCCCc1ccc(O)c(C(=O)Nc2ccc(Br)cc2)c1

MIC (Actinomyces viscosus [1]): 3.25 µg/mL (≈ 7.52 µM)
Compound: CCCCCCCCCCc1ccc(O)c(C(=O)Nc2ccc(Br)cc2)c1

MIC (Actinomyces viscosus [1]): 4 µg/mL (≈ 9.54 µM)
Compound: O=C(NCc1ccc(Cl)cc1)c1cc(Br)cc(Br)c1O

MIC (Actinomyces viscosus [1]): 1 µg/mL (≈ 2.52 µM)
Compound: CCCCCCCC(=O)c1ccc(O)c(C(=O)Nc2nc3ccccc3s2)c1

MIC (Actinomyces viscosus [1]): 0.5 µg/mL (≈ 1.2 µM) | pKa [2]: 6.1 | Log 1/MIC [3]: 5.92 | logD [4]: 5.88 | logP ([5]; octanol/buffer, read-out: logP): 7.02
Compound: CCCCCCCC(=O)c1ccc(O)c(C(=O)Nc2ccc(Br)cc2)c1
